Key:
HTT mRNA = assay: Splicing RT-qPCR assay, HTT canonical (CJ) and alternative (AJ) junction mRNA; type: cell-based, human; details: Homo sapiens, A673 or K562 cells, 24 hours compound treatment; for IC50: 24 h, read-out: HTT CJ (IC50, decrease in canonical junction mRNA); for AC50: read-out: HTT AJ (AC50, increase in alternative junction mRNA)
Description: (§1) Compounds described herein were used to modulate RNA transcript abundance in cells. The expression of a target mRNA was measured by detecting the formation of an exon-exon junction in the canonical transcript (CJ). A compound mediated exon-inclusion event was detected by observing an increase in formation of a new junction with an alternative exon (AJ). Real-time qPCR assays were used to detect these splicing switches and interrogate the potency of various compounds towards different target genes. A high-throughput real time quantitative PCR (RT-qPCR) assay was developed to measure these two isoforms of the mRNA (CJ and AJ) for exemplary genes, such as HTT, SMN2, and MYB, together with a control housekeeping gene, GAPDH or GUSB or PPIA, used for normalization. Briefly, the A673 or K562 cell line was treated with various compounds described herein (e.g., compounds of Formula (I)). After treatment, the levels of the HTT, MYB, or SMN2 mRNA targets were determined from each sample of cell lysate by cDNA synthesis followed by qPCR.
(§2) • Cells-to-CT 1-step kit: ThermoFisher A25602, Cells-to-CT lysis reagent: ThermoFisher 4391851C, TaqMan™ Fast Virus 1-Step Master Mix: ThermoFisher 4444436 • GAPDH: VIC-PL, ThermoFisher 4326317E (Assay: Hs99999905_m1)—used for K562/suspension cell lines • GUSB: VIC-PL, ThermoFisher 4326320E (Assay: Hs99999908_m1)—used for K562/suspension cell lines • PPIA: VIC-PL, ThermoFisher 4326316E (Assay: Hs99999904_m1)—used for A673/adherent cell lines
(§3) The A673 cell line was cultured in DMEM with 10% FBS. Cells were diluted with full growth media and plated in a 96-well plate (15,000 cells in 100 ul media per well). The plate was incubated at 37° C. with 5% CO2 for 24 hours to allow cells to adhere. An 11-point 3-fold serial dilution of the compounds was made in DMSO then diluted in media in an intermediate plate. Compounds were transferred from the intermediate plate to the cell plate with the top dose at a final concentration of 10 uM in the well. Final DMSO concentration was kept at or below 0.25%. The cell plate was returned to the incubator at 37° C. with 5% CO2 for an additional 24 hours.
(§4) The K562 cell line was cultured in IMDM with 10% FBS. For K562, cells were diluted with full growth media and plated in either a 96-well plate (50,000 cells in 50 uL media per well) or a 384-well plate (8,000-40,000 cells in 45 uL media per well). An 11-point 3-fold serial dilution of the compounds were made in DMSO then diluted in media in an intermediate plate. Compound was transferred from the intermediate plate to the cell plate with the top dose at a final concentration of 10 uM in the well. Final DMSO concentration was kept at or below 0.25%. Final volume was 100 uL for 96-well plate and 50 uL for 384-well plate. The cell plate was then placed in an incubator at 37° C. with 5% CO2 for 24 hours.
(§5) The cells were then gently washed with 50 uL-100 uL cold PBS before proceeding to addition of lysis buffer. 30 uL-50 uL of room temperature lysis buffer with DNAse I (and optionally RNAsin) was added to each well. Cells were shaken/mixed thoroughly at room temperature for 5-10 minutes for lysis to take place and then 3 uL-5 uL of room temperature stop solution was added and wells were shaken/mixed again. After 2-5 minutes, the cell lysate plate was transferred to ice for RT-qPCR reaction setup. The lysates could also be frozen at −80° C. for later use.
(§6) In some cases, a direct lysis buffer was used. An appropriate volume of 3× lysis buffer (10 mM Tris, 150 mM NaCl, 1.5%-2.5% Igepal and 0.1-1 U/uL RNAsin, pH 7.4) was directly added to either K562 or A673 cells in media and mixed by pipetting 3 times. The plates were then incubated at room temperature with shaking/rocking for 20-50 minutes to allow for lysis to take place. After this time, the cell lysate plate was transferred to ice to set up for the RT-qPCR reactions. The lysates could also be frozen at −80° C. for later use. […]

MYB mRNA = assay: Splicing RT-qPCR assay, MYB canonical (CJ) and alternative (AJ) junction mRNA; type: cell-based, human; details: Homo sapiens, 24 h, A673 or K562 cells, 24 hours compound treatment, RT-qPCR; for AC50: read-out: MYB AJ (AC50, increase in alternative junction mRNA); for IC50: read-out: MYB CJ (IC50, decrease in canonical junction mRNA)
Description: as §1, §2, §3, §4, §5, §6

Structure (SMILES) | IC50 (HTT mRNA) | AC50 (HTT mRNA) | AC50 (MYB mRNA) | IC50 (MYB mRNA)
CO[C@H]1C[C@H](n2cc3c(N4CCNCC4)ccc(C(=O)Nc4cc(F)c5nc(C)cn5c4)c3n2)C1 [Compound 496, Cis-N-(8-fluoro-2-methylimidazo[1,2-a]pyridin-6-yl)-2-((1s,3s)-3-methoxycyclobutyl)-4-(piperazin-1-yl)-2H-indazole-7-carboxamide 2,2,2-trifluoroacetate] | > 10000 nM | > 10000 nM | > 10000 nM | > 10000 nM
Cc1cn2cc(NC(=O)c3ccc(N4CCNCC4)c4cn(CC5COC5)nc34)cc(F)c2n1 [Compound 497, N-{8-fluoro-2-methylimidazo[1,2-a]pyridin-6-yl}-2-(oxetan-3-ylmethyl)-4-(piperazin-1-yl) indazole-7-carboxamide] | 100 to 1000 nM | 100 to 1000 nM | < 100 nM | < 100 nM
CCn1cc2c(OC3CCNC3)ccc(C(=O)Nc3cc(F)c4nc(C)cn4c3)c2n1 (stereo not shown) [Compound 498, 2-ethyl-N-{8-fluoro-2-methylimidazo[1,2-a]pyridin-6-yl}-4-(pyrrolidin-3-yloxy) indazole-7-carboxamide] | 100 to 1000 nM | 1000 to 10000 nM | 100 to 1000 nM | 100 to 1000 nM
Cn1cc2c(N3CCNCC3)ccc(C(=O)Nc3ccc4c(c3)oc(=O)n4C)c2n1 [Compound 499, 2-methyl-N-(3-methyl-2-oxo-2,3-dihydrobenzo[d]oxazol-6-yl)-4-(piperazin-1-yl)-2H-indazole-7-carboxamide] | > 10000 nM | > 10000 nM | > 10000 nM | > 10000 nM
CCNC1CCN(c2ccc(C/N=C3\C=C(F)c4nc(C)cn4C3)c3nn(C)cc23)CC1 [Compound 500, N-ethyl-1-[7-({[(6E)-8-fluoro-2-methyl-5H-imidazo[1,2-a]pyridin-6-ylidene]amino}methyl)-2-methylindazol-4-yl]piperidin-4-amine] | > 10000 nM | > 10000 nM | > 10000 nM | > 10000 nM
CCNC1CCN(c2ccc(C(=O)Nc3cn4cc(C)nc4c(F)c3OC)c3oc(C)cc23)CC1 [Compound 501, 4-(4-(ethylamino)piperidin-1-yl)-N-(8-fluoro-7-methoxy-2-methylimidazo[1,2-a]pyridin-6-yl)-2-methylbenzofuran-7-carboxamide 2,2,2-trifluoroacetate] | < 100 nM | < 100 nM | < 100 nM | < 100 nM
C=Cn1cc2c(N3CCC(NC)CC3)ccc(C(=O)Nc3cc(F)c4nc(C)cn4c3)c2n1 [Compound 502, 2-ethenyl-N-{8-fluoro-2-methylimidazo[1,2-a]pyridin-6-yl}-4-[4-(methylamino)piperidin-1-yl]indazole-7-carboxamide] | < 100 nM | 100 to 1000 nM | < 100 nM | < 100 nM
C=Cn1cc2c(N3CCC(NCC)CC3)ccc(C(=O)Nc3cc(F)c4nc(C)cn4c3)c2n1 [Compound 503, 2-ethenyl-4-[4-(ethylamino)piperidin-1-yl]-N-{8-fluoro-2-methylimidazo[1,2-a]pyridin-6-yl}indazole-7-carboxamide] | 100 to 1000 nM | < 100 nM | < 100 nM | < 100 nM
COCc1nc2c(F)cc(NC(=O)c3ccc(N4CCNCC4)c4cn(C)nc34)cc2o1 [Compound 504, N-[4-fluoro-2-(methoxymethyl)-1,3-benzoxazol-6-yl]-2-methyl-4-(piperazin-1-yl) indazole-7-carboxamide] | 1000 to 10000 nM | 1000 to 10000 nM | 1000 to 10000 nM | 1000 to 10000 nM
CCn1cc2c(OC3CCNCC3)ccc(C(=O)Nc3cc(F)c4nc(C)cn4c3)c2n1 [Compound 505, 2-ethyl-N-{8-fluoro-2-methylimidazo[1,2-a]pyridin-6-yl}-4-(piperidin-4-yloxy) indazole-7-carboxamide] | 1000 to 10000 nM | 1000 to 10000 nM | 100 to 1000 nM | 100 to 1000 nM
CCn1cc2c(C3=CCNCC3)ccc(C(=O)Nc3cc(F)c4nc(C)cn4c3)c2n1 [Compound 506, 2-ethyl-N-{8-fluoro-2-methylimidazo[1,2-a]pyridin-6-yl}-4-(1,2,3,6-tetrahydropyridin-4-yl) indazole-7-carboxamide] | 100 to 1000 nM | 1000 to 10000 nM | 100 to 1000 nM | 100 to 1000 nM
Cc1cn2cc(NC(=O)c3ccc(N4CCNCC4)c4cn(C)nc34)nc(C#N)c2n1 [Compound 507, N-{8-cyano-2-methylimidazo[1,2-a]pyrazin-6-yl}-2-methyl-4-(piperazin-1-yl) indazole-7-carboxamide] | 1000 to 10000 nM | 1000 to 10000 nM | 100 to 1000 nM | 100 to 1000 nM
CCn1cc2c(N3CCC(CC)(N(C)C)CC3)ccc(C(=O)Nc3cc(F)c4nc(C)cn4c3)c2n1 [Compound 508, 4-[4-(dimethylamino)-4-ethylpiperidin-1-yl]-2-ethyl-N-{8-fluoro-2-methylimidazo[1,2-a]pyridin-6-yl}indazole-7-carboxamide] | < 100 nM | 100 to 1000 nM | < 100 nM | < 100 nM
Cc1nc2c(F)cc(NC(=O)c3ccc(N4CCNCC4)c4cn(C)nc34)cc2[nH]1 [Compound 509] | > 10000 nM | > 10000 nM | 1000 to 10000 nM | 1000 to 10000 nM
COCCn1cc2c(N3CCNCC3)ccc(C(=O)Nc3cn4cc(C)nc4c(OC)n3)c2n1 [Compound 510, N-{8-methoxy-2-methylimidazo[1,2-a]pyrazin-6-yl}-2-(2-methoxyethyl)-4-(piperazin-1-yl) indazole-7-carboxamide] | 1000 to 10000 nM | 1000 to 10000 nM | 100 to 1000 nM | 100 to 1000 nM
Cc1nc2c(C)cc(NC(=O)c3ccc(N4CCNCC4)c4cn(C)nc34)nc2o1 [Compound 511, N-{2,7-dimethyl-[1,3]oxazolo[5,4-b]pyridin-5-yl}-2-methyl-4-(piperazin-1-yl) indazole-7-carboxamide] | 100 to 1000 nM | 100 to 1000 nM | 100 to 1000 nM | 100 to 1000 nM
CCn1cc2c([C@@]34CCNCC3C4)ccc(C(=O)Nc3cc(F)c4nc(C)cn4c3)c2n1 (stereo partly shown) [Compound 513] | 1000 to 10000 nM | > 10000 nM | 100 to 1000 nM | 100 to 1000 nM
Cn1cc2c(N3CCNCC3)ccc(C(=O)Nc3cc(F)c4nc(CF)oc4c3)c2n1 [Compound 514, N-[4-fluoro-2-(fluoromethyl)-1,3-benzoxazol-6-yl]-2-methyl-4-(piperazin-1-yl) indazole-7-carboxamide] | 100 to 1000 nM | 100 to 1000 nM | < 100 nM | < 100 nM
CCn1cc2c(N3CCC(CC)(NC)CC3)ccc(C(=O)Nc3cc(F)c4nc(C)cn4c3)c2n1 [Compound 515, 2-ethyl-4-[4-ethyl-4-(methylamino)piperidin-1-yl]-N-{8-fluoro-2-methylimidazo[1,2-a]pyridin-6-yl}indazole-7-carboxamide] | 100 to 1000 nM | 100 to 1000 nM | < 100 nM | < 100 nM

From patent publication US20250154169A1, “COMPOUNDS AND METHODS FOR MODULATING SPLICING” (REMIX THERAPEUTICS INC., priority 2021, published 2025)
